Assay results from a melting point compilation (Tetko et al.; mined from patent text by program, amines drawn as free bases though some values may be those of a salt).

`CC[C@H](C)[C@@H]1NC(=S)c2ccccc2/C1=C/C(=O)OC` showed a melting point of 193 to 196 °C. For `C=C(F)C(=O)Oc1c(Cl)c(Cl)c(Cl)c(Cl)c1Cl`, the melting point was 90 to 92 °C. For `O=C(O)c1cccc(CN2CCC(c3cn(Cc4cccs4)c4ccccc34)CC2)c1`, the melting point was 228 to 229 °C. For `COC(=O)c1ccc(Cn2nc(C(C)(C)C)cc2O)cc1`, the melting point was 161 to 162 °C. For `Cn1cc(-c2ccc(C(F)(F)F)cc2)c(=O)c(-c2cccc(C(F)(F)F)c2)c1`, the melting point was 110 to 113 °C. Compound `COc1ccc(CCC(=O)Nc2ccccc2C(=O)O)cc1OC` has a melting point of 137 °C. Work on `CCS(=O)(=O)CCC(=O)NNC(=O)N1Cc2ccccc2Oc2ccc(C)cc21` yielded a melting point of 167 to 169 °C. `CSc1noc(-c2ccc(OCCCOc3ccccc3)cc2)c1C#N` gave a melting point of 121 to 123 °C. Work on `CCC(OCC1CC1)c1ccc(Cl)c2nc3n(c12)CCCN3c1ccc(Cl)cc1Cl` (centres undefined) yielded a melting point of 159 to 160 °C. In the case of `CC(C(=O)NC(=O)OCC(F)(F)F)(c1ccccc1)c1ccccc1`, the melting point was 143 to 145 °C. Compound `CC(=O)c1c(-c2ccccc2)oc(-c2ccncc2)c1C` has a melting point of 108 to 110 °C. With `CS(=O)(=O)Nc1cc2oc(O)cc(=O)c2cc1Oc1ccccc1` the melting point was greater than 250 °C. Compound `CC(=O)OC1CSC(Oc2ccc(-c3cccnc3F)nc2)C(OC(C)=O)C1OC(C)=O` (centres undefined) has a melting point of 153 °C. `Cc1nc2n(c(=O)c1CCO)CCCN2Cc1ccccc1` gave a melting point of 150 °C. `CCNC(=O)c1c([Si](C)(C)C)ccc(SC)c1Cl` gave a melting point of 137 to 139 °C. `CCCCOC(=O)N[C@H](C(=O)NCCc1ccc(OCC#Cc2ccc(Cl)cc2)c(OC)c1)C(C)C` showed a melting point of 141 to 142 °C. For `CN1C(C)(C)CC(OC(=O)NNC(=O)OC2CC(C)(C)N(C)C(C)(C)C2)CC1(C)C`, the melting point was 189 to 191 °C. With `O=C(OCc1c(Cl)ccc2cc(Cl)cnc12)c1ccccc1[N+](=O)[O-]` the melting point was 152 °C. Compound `CN1CC(CCN2CC(=O)NC2=O)CC2c3cccc4[nH]cc(c34)CC21` (centres undefined) has a melting point of 242 to 244 °C. Work on `COc1ccc(Cc2nc(NCCO)c3c(C)c(C#N)sc3n2)cc1OC` yielded a melting point of 149 to 151 °C. `O=C(NCC1CCC(CNS(=O)(=O)c2ccc3ccccc3c2)CC1)C1CCc2ccccc2C1` (centres undefined) gave a melting point of 225 to 226 °C. Compound `CC1=C(c2ccc(C(=O)N3Cc4cccn4Cc4ccccc43)cc2)CCCC1` has a melting point of 119 to 120 °C. With `COC(=O)C1=C(C)NC(C)=C(C(=O)OCCCCCCOc2cc(-c3ccccc3)[nH]n2)C1c1cccc(Cl)c1Cl` (centres undefined) the melting point was 68 to 71 °C. In the case of `Cc1c(CC(=O)OCCCO)cc(-c2ccc(S(C)(=O)=O)cc2)n1-c1ccccc1`, the melting point was 108 to 110 °C. In the case of `CC(=O)OC1CC(COC(=O)c2ccccc2)OC1n1cc(F)c(=O)[nH]c1=O` (centres undefined), the melting point was 68 to 70 °C. Work on `CC(C)CCC1(C(F)(F)F)NC(=O)Nc2ccc(F)cc21` (racemic) yielded a melting point of 179 °C. Compound `CCCCCC(=O)c1c(O)oc(=O)c(C(=O)CCCCC)c1O` has a melting point of 87 to 88 °C. In the case of `N#Cc1cc(F)c(F)cc1N`, the melting point was 114 °C. For `O=C(O)c1ccc(OCC2CN(c3ccc([N+](=O)[O-])cc3)C(=O)O2)cc1` (centres undefined), the melting point was 236 to 238 °C. With `CC1(C)CN=C(NCC2CCCc3ccc(S(=O)(=O)c4ccccc4)cc32)NC1` (centres undefined) the melting point was 140 to 145 °C. For `COc1cc2cc3[nH]cc(C#N)c(=O)c3cc2cc1OC`, the melting point was greater than 265 °C. Compound `CC(C)Oc1ccc(-c2cccs2)cc1C=O` has a melting point of 186 to 187 °C. Work on `Brc1c[nH]nc1-c1ccccc1` yielded a melting point of 114 to 116 °C. Work on `Cc1ccnc(NCCSCc2nc[nH]c2C)c1C(=O)O` yielded a melting point of 143 °C. For `CN=C(N)Nc1nc(-c2cccc(C(=O)NCCN)c2)cs1`, the melting point was 214 to 216 °C. With `O=C(O)CCc1cnn2c(=O)[nH]cnc12` the melting point was 277 °C. `O=C(O)Cc1cccc(CNC(=O)C2Cc3ccccc3N2S(=O)(=O)c2ccc(-c3cccc(C(F)(F)F)c3)cc2)c1` (centres undefined) showed a melting point of 80 °C. In the case of `Brc1cc(-c2ccccc2)cc(-c2ccccc2)c1`, the melting point was 109 °C. `N#Cc1c(I)c(C(=O)Cl)c(I)c(C(=O)NCC(O)CO)c1I` (centres undefined) gave a melting point of 285 to 288 °C.
